Tests used:
[1] = pH of 1 mg/ml EDTA or analogue in water or phosphate buffer; format: physicochemical
Text: Based on the pH of EDTA or analogues in water and in 0.1M phosphate buffered saline as show in Table 2, EDTA disodium salt or dipotassium salt has a pH close to neutral pH in human body (6.42-6.92), whereas EDTA tetrasodium or trisodium has a very basic pH (>8.0) in human body. EDTA disodium or dipotassium is preferred in the examples.

[2] = tested on: blood clotting (fresh pig blood); experiment: Activated clotting time (ACT) of EDTA or analogues in fresh pig blood (Example 12); details: for Increase in clotting time compared to control: control 154 sec
Procedure: The activated clotting time (ACT) evaluation of EDTA or analogues was performed in fresh pig blood and recorded employing the Hemochron® Response device.
The ACT measurements were made in fresh pig blood. 1.0 ml of fresh pig blood was added to a test tube containing an activator (Hemochron@Celite@ ACT tubes, Lot F8FTE026 from Accriva Diagnostics, Inc.). A target amount of drug solution was then added into the test tube. The test tube was gently swirled so that the blood and drug was well-mixed. 0.1 ml of 0.3M calcium chloride was then added. The tube was gently shaken before being inserted into the Hemochron Response detector. The ACT read out was recorded and reported. The ACT of the control blood in the absence of any drug as first determined to establish a baseline. Then ACT was determined in the presence of different concentrations of EDTA or analogues as a single component.

[3] = pH of 1 mg/ml EDTA or analogue in water or phosphate buffer; format: physicochemical; details: 1 mg/ml in 0.01 M pH 7.4 phosphate buffer; 21.8-22.3 ° C.; listed as EDTA tetra sodium
[4] = In-vitro elution of coated stents in 0.01M phosphate buffered saline at 37° C. (HPLC); format: physicochemical; details: 5 min
Procedure: (§1) In-Vitro Elution evaluation of the EDTA coated stent above prepared was performed in 0.01M phosphate buffered saline at 37° C. water shaking bath then tested on High Performance Liquid Chromatography (HPLC). EDTA was separated from interfering peaks by a Carbon18 reverse phase column and quantified with an external EDTA calibration standard solution prepared at similar concentrations. The percentage of EDTA eluted was calculated during each time point.
as §1, with “of Tetra acetoxymethyl ester” for “of the”, “stent” for “stent above prepared”, “(HPLC). Tetra acetoxymethyl ester” for “(HPLC).”, “external tetra acetoxymethyl ester” for “external”, “of tetra acetoxymethyl ester” for “of”
In-Vitro Elution evaluation of the EDTA complex coated stent was performed in 0.01M phosphate buffered saline at 37° C. water shaking bath then tested on High Performance Liquid Chromatography (HPLC). EDTA disodium was separated from interfering peaks by a Carbon18 reverse phase column and quantified with an external EDTA disodium calibration standard solution prepared at similar concentrations. […]

pH ([1]; 1 mg/ml in d-water, 21.8-22.0 ° C., listed as EDTA tetra sodium): 9.61
pH ([1]; in water and phosphate buffered saline, listed as EDTA tetrasodium): > 8.0
pH [3]: 8.27
Cumulative percent release of EDTA [4]: about 99.8%
Compound: O=C(O)CN(CCN(CC(=O)O)CC(=O)O)CC(=O)O [EDTA•4Na•xH2O]
Clotting time (ACT) ([2]; 100 ng/mg): 204 s
Increase in clotting time compared to control ([2]; 100 ng/mg): 50 s
Clotting time (ACT) ([2]; 200 ng/mg): 275 s
Increase in clotting time compared to control ([2]; 200 ng/mg): 121 s
Clotting time (ACT) ([2]; 250 ng/mg): 329 s
Increase in clotting time compared to control ([2]; 250 ng/mg): 175 s
Clotting time (ACT) ([2]; 300 ng/mg): >500 s
Increase in clotting time compared to control ([2]; 300 ng/mg): >346 s
blood coagulation compared to the blood control ([2]; EDTA 200 ng/mg, sodium salts 300 ng/mg, listed as EDTA tetra sodium salt): The same trend

Source: US20260315653A1, “ANTICOAGULANT COMPOSITIONS COMPRISING ANTI-PLATELET AND ANTI-INFLAMMATORY DRUGS AND METHODS AND DEVICES FOR THEIR USE” (Elixir Medical Corporation, priority 2023, published 2026)
